Test results from patent US9284303B2, “Benzimidazole cannabinoid agonists bearing a substituted heterocyclic group” (priority 2006, dated 2016).
Where a name gives a salt, the structure may show the parent alone.

What was measured:
[1] = molecular target: T1, human CB1 (hCB1) receptor (Homo sapiens, UniProt P21554); assay: Inhibition of forskolin-activated cAMP production upon activation of hCB1 (HTRF), CHO-K1 cells; format: cell-based; details: CB1 pEC50, hCB1-CHO-K1 cells, forskolin-activated cAMP, pEC50=-log(EC50)
T1 construct: expressed in transfected cells; host or cells: CHO-K1
Method: (§1) Functional activity of the test compounds was assessed by measuring their potency to inhibit forskolin-activated cAMP production upon activation of the human CB1 (hCB1) or human CB2 (hCB2) receptor through homogenous time resolved fluorescence (HTRF) assays.
CHO-K1 cells stably transfected with either hCB1 or hCB2 were grown up to 80-90% confluence in T175 Falcon flasks in DMEM/NUT MIX F-12 culture medium complemented with 2% Solution A (5.10^6 IU/l penicillin G, 5 g/l streptomycin sulphate, 5.5 g/l pyruvate, 14.6 g/l L-glutamine, 1M NaOH) and 10% foetal calf serum. Before the experiments, medium was removed, cells were washed with PBS/EDTA (140 mM NaCl, 1 mM Naz-EDTA, 8 mM Na2HPO4.2H2O, 8.5 mM KH2PO4, 2.7 mM KCl, 21 mM glucose), resuspended in stimulation buffer (HBSS 1x, IBMX 1 mM, Hepes 5 mM, MgCl2 10 mM, BSA 0.1%, pH 7.4). Cells were diluted to a concentration of 8.10^5 cell/ml for hCB1 experiments and 10^6 cells/ml for hCB2 experiments. Assays were performed using the cAMP Dynamic HTRF kit (CIS bio international, France) according to the recommendations of the manufacturer.
For CB1, each well of a 96 flat bottom black polystyrene assay plate (Costar) was filled with 25 μl stimulation buffer containing 6 μM forskolin and either test compound (in 2% DMSO), 2% DMSO or 2 μM CP55490 (in 2% DMSO). Then, 25 μl of the diluted cells was added (20,000 cells/well). After 30 minutes incubation in dark at room temperature, 25 μl cAMP-XL665 and 25 μl anti-cAMP cryptate (both at a final dilution of 1/80) was added to the cells.
After equilibration of the reaction mixtures for 1 to 24 hours in dark at room temperature, fluorescence was measured at 665 nm and 620 nm using a Discovery microplate fluorescence counter (Perkin Elmer), and the signal ratio of 665 nm/620 nm was calculated. The signal ratios of the test compounds were expressed relative to the signal ratios of the DMSO control (maximal signal ratio, no inhibition of cAMP) and CP55490 or WIN55212-2 for hCB1 and hCB2, respectively (minimal signal ratio, maximal inhibition of cAMP). From the dose response curves generated for each test compound, the dose at which 50% of the maximal inhibition of cAMP level is observed (EC50, expressed in the Tables as pEC50=−log(EC50) values) and the level of inhibition reached with 10 μM of the test compound compared to CP55490 (for hCB1) or WIN55212-2 (for hCB2) was calculated.

[2] = molecular target: T2, human CB2 (hCB2) receptor (Homo sapiens, UniProt P34972); assay: Inhibition of forskolin-activated cAMP production upon activation of hCB2 (HTRF), CHO-K1 cells; format: cell-based; details: for ratio CB2 agonism over CB1 agonism: Table C-1, selectivity hCB2 over hCB1; for EC50: hCB2-CHO-K1 cells, forskolin-activated cAMP, pEC50=-log(EC50), read-out: CB2 pEC50 (converted)
T2 construct: expressed in transfected cells; host or cells: CHO-K1
Method: as §1
Before the experiments, medium was removed, cells were washed with PBS/EDTA (140 mM NaCl, 1 mM Naz-EDTA, 8 mM Na2HPO4.2H2O, 8.5 mM KH2PO4, 2.7 mM KCl, 21 mM glucose), resuspended in stimulation buffer (HBSS 1x, IBMX 1 mM, Hepes 5 mM, MgCl2 10 mM, BSA 0.1%, pH 7.4). Cells were diluted to a concentration of 8.10^5 cell/ml for hCB1 experiments and 10^6 cells/ml for hCB2 experiments. Assays were performed using the cAMP Dynamic HTRF kit (CIS bio international, France) according to the recommendations of the manufacturer.
Then, 20 μl of the diluted hCB2-CHO-K1 cells was added (20,000 cells/well). After 30 minutes incubation in dark at room temperature, 10 μl cAMP-XL665 and 10 μl anti-cAMP cryptate (both at a final dilution of 1/100) was added to the cells.

T1 sequence (P21554 whole entry): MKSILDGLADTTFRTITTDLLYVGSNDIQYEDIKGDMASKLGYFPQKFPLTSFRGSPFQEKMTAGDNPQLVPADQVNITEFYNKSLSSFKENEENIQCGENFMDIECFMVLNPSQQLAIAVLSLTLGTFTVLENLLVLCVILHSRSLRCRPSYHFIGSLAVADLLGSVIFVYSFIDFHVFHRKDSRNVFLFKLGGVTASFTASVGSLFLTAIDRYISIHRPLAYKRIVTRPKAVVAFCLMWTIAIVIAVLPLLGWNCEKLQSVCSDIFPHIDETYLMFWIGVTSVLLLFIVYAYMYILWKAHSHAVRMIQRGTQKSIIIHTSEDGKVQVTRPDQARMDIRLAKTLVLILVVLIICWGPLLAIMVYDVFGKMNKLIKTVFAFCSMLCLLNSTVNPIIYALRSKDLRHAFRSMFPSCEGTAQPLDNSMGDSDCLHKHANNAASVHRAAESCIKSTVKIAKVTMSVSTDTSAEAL
T2 sequence (P34972 whole entry): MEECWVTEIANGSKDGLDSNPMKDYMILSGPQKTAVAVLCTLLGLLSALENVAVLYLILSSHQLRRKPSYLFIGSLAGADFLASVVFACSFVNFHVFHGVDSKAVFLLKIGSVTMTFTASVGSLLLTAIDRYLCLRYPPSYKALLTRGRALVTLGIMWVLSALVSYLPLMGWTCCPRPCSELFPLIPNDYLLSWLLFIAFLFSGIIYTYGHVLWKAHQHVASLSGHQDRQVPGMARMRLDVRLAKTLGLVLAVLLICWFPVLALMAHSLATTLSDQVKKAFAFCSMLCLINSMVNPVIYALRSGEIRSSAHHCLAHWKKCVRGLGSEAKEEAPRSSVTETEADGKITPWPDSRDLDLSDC

| SMILES | melting point [°C] | EC50 [1] [nM] | ratio CB2 agonism over CB1 agonism [2] | EC50 [2] [nM] | also measured |
| --- | --- | --- | --- | --- | --- |
| CC(C)(C)c1nc2cc(S(=O)(=O)c3ccc(C#N)s3)ccc2n1CC1CCOCC1 | 156 |  |  |  |  |
| CC(C)(C)c1nc2cc(S(=O)(=O)c3ccc(S(C)(=O)=O)s3)ccc2n1CC1CCOCC1 (as salt: HCl) [Co. No. 58] | 224 |  |  |  |  |
| CC(C)(C)c1nc2cc(S(=O)(=O)c3ccc(C(=O)N4CCCC4)o3)ccc2n1CC1CCOCC1 (as salt: HCl) [Co. No. 74] | 108.5 |  |  |  |  |
| CC(C)(C)c1nc2cc(S(=O)(=O)c3ncc(C#N)s3)ccc2n1CCCC(F)(F)F | 122 |  |  |  |  |
| CCOc1cc(S(=O)(=O)c2ccc3c(c2)nc(C(C)(C)C)n3CCCC(F)(F)F)ccn1 | 137.7 |  |  |  |  |
| CC(O)c1ccc(S(=O)(=O)c2ccc3c(c2)nc(C(C)(C)C)n3CC2CCOCC2)s1 (stereo not drawn) | 192 |  |  |  |  |
| CC(C)(C)c1nc2cc(S(=O)(=O)c3ccc(S(N)(=O)=O)s3)ccc2n1CC1CCOCC1 | 259 |  |  |  |  |
| CC(C)(C)c1nc2cc(S(=O)(=O)c3ccc(C(=O)O)cn3)ccc2n1CC1CCCCC1 [Co. No. 46] |  | 3890 | 3758 | 1.05 |  |
| CC(C)(C)c1nc2cc(S(=O)(=O)c3ccc(S(N)(=O)=O)s3)ccc2n1CC1CCOCC1 (as salt: HCl) [Co. No. 47] | 255 to 260 |  |  |  |  |
| COc1ccc(CNCCc2cc(S(=O)(=O)c3ccc4c(c3)nc(C(C)(C)C)n4CC3CCOCC3)ccn2)cc1 [Co. No. 157] |  | > 10000 | >2884 | 3.47 |  |
| CC(C)(C)c1nc2cc(S(=O)(=O)c3sc(S(C)(=O)=O)cc3Br)ccc2n1CC1CCOCC1 [Co. No. 63] |  | 2820 |  | 0.977 | ratio CB2 agonism over CB1 agonism ([2]; listed as 63): 2818 |
| CC(C)(C)c1nc2cc(S(=O)(=O)c3ccc(S(N)(=O)=O)s3)ccc2n1CC1CCOCC1 [Co. No. 47] |  | 1480 | 871 | 1.7 |  |
| CC(C)(C)c1nc2cc(S(=O)(=O)c3ccnc(/C=C\Cl)c3)ccc2n1CC1CCOCC1 [Co. No. 124] |  | > 10000 | >692 | 14.5 |  |
| CC(C)(C)c1nc2cc(S(=O)(=O)c3ccn(C(F)F)c(=O)c3)ccc2n1CC1CCOCC1 [Co. No. 83] |  | 407 | 209 | 2 |  |
| CCOc1cc(S(=O)(=O)c2ccc3c(c2)nc(C(C)(C)C)n3CC2CCOCC2)ccn1 [Co. No. 9] |  | 1410 | 4266 | 0.331 | ratio CB2 over CB1 agonism ([2]; Table C-3, comparison of art compounds A to E with compounds of the invention): 4266 |
| CC(C)(C)c1nc2cc([S+]([O-])c3cc[n+]([O-])cc3Br)ccc2n1CC1CCOCC1 (stereo not drawn) [Co. No. 86] |  | > 10000 |  | 12 |  |
| CC(C)(C)c1nc2cc(S(=O)(=O)c3ccnc(F)c3)ccc2n1CC1CCC1 (as salt: HCl) (hydrate or solvate) [Co. No. 136] | 184.3 |  |  |  |  |
| CC(C)(C)c1nc2cc(S(=O)(=O)c3ccc(S(C)(=O)=O)s3)ccc2n1CC1CCOCC1 [Co. No. 58] |  | 1820 |  | 0.832 | ratio CB2 agonism over CB1 agonism ([2]; listed as 58): 2188 |
| CC(C)(C)c1nc2cc(S(=O)(=O)c3ccc(C(=O)N4CCCC4)cn3)ccc2n1CC1CCCCC1 [Co. No. 38] |  | > 10000 | >3631 | 2.75 |  |
